# Results: patent US11524966B1 (Valo Early Discovery, Inc., priority 2017, dated 2022)
# Molecular target: T1, USP28 (USP28-5(1-1077)-TEV-6*His; LifeSensors) (Homo sapiens, UniProt Q96RU2)
# T1 construct: construct USP28 (USP28-5(1-1077)-TEV-6*His; LifeSensors); TEV cleavage site (C); 6xHis (C); purchased LifeSensors
# T1 sequence (Q96RU2 1-1077): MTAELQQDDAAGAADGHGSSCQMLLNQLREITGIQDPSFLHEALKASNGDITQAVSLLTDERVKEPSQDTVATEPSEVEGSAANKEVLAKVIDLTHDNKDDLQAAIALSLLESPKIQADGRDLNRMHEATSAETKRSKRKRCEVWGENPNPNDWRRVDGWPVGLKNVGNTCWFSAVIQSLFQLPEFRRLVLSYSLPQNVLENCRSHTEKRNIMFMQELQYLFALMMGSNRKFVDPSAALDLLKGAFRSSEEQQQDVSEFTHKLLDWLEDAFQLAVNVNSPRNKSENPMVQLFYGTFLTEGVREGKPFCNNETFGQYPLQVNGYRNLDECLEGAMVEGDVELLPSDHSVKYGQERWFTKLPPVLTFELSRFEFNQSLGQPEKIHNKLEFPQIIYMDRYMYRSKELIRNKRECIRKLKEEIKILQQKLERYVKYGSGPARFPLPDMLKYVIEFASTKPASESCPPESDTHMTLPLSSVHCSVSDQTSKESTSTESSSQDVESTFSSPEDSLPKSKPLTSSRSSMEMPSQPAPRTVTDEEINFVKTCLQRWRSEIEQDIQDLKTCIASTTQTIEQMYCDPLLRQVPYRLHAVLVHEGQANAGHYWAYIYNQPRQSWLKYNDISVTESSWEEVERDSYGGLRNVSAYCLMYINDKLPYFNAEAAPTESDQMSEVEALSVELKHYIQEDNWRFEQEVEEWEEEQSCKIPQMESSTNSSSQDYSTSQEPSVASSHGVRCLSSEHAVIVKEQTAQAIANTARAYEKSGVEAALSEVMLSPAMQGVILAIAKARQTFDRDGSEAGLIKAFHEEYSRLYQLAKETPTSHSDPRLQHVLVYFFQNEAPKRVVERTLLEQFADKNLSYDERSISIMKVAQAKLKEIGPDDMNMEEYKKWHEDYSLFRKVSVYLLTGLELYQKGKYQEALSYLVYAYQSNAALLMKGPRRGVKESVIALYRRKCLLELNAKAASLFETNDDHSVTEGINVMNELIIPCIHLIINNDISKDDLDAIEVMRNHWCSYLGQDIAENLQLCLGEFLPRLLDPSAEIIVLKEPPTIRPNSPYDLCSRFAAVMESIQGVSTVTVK
# Assay: Ubiquitin-Rhodamine 110 Assay for USP28 Activity, Example A-1(b)
# Type: biochemical
# Settings: Ub-Rh110 assay, Example A-1(b)
# Description: Example A-1(b): Biochemical Assay: Ubiquitin-Rhodamine 110 Assay for USP28 Activity
# Each assay was performed in a final volume of 20 μL in assay buffer containing 20 mM Tris-HCl (pH 8.0, (1M Tris-HCl, pH 8.0 solution; Corning 46-031-CM)), 2 mM CaCl2) (1M Calcium Chloride solution; Sigma #21114) 2 mM BME (2-Mercaptoethanol; Sigma 63689-25ML-F), 0.01% Prionex ([…] filtered, Sigma #G-0411), and 0.01% Triton X-100. Stock compound solutions were stored at −20° C. as 10 mM in DMSO. Up to 1 month prior to the assay, 2 mM test compounds were pre-dispensed into assay plates (Black, low volume; Corning #3820) and frozen at −20° C. Prestamped assay plates were allowed to come to room temperature on the day of the assay. For the screen, 100 nL of 2 mM was pre-dispensed for a final screening concentration of 10 μM (DMSO(fc)=0.5%). […] Plates were incubated stacked for 90 minutes at room temperature before fluorescence was read on the Envision (Excitation at 485 nm and Emission at 535 nm; Perkin Elmer) or on the PheraSTAR (Excitation at 485 nm and Emission at 535 nm; BMG Labtech).
# For follow-up studies, each assay was performed in a final volume of 15 μL in assay buffer containing 20 mM Tris-HCl (pH 8.0, (1M Tris-HCl, pH 8.0 solution; Corning 46-031-CM)), 3 mM BME (2-Mercaptoethanol; Sigma 63689-25ML-F), 0.03% BGG (0.22 μM filtered, Sigma, G7516-25G), and 0.01% Triton X-100 (Sigma, T9284-10L). Nanoliter quantities of either an 8-point or 10-point, 3-fold serial dilution in DMSO was pre-dispensed into assay plates (Perkin Elmer, ProxiPlate-384 F Plus, #) for a final test concentration of either 25 μM to 11 nM or 25 μM to 1.3 nM, respectively. Enzyme USP28, construct USP28 (USP28-5(1-1077)-TEV-6*His; LifeSensors) concentration and incubation times were optimized for the maximal signal-to-background while maintaining initial velocity conditions at a fixed substrate concentration. The final concentration of the enzyme in the assay was 75 pM. Final substrate (Ub-Rh110; Ubiquitin-Rhodamine 110, R&D Systems #U-555) concentration was 25 nM with [Ub-Rh110]<<Km. 5 μL of 2× enzyme was added to assay plates (pre-stamped with compound) preincubated with USP28 for 30 minutes and then 5 μL of 2×Ub-Rh110 was added to assay plates. Plates were incubated stacked for 20 minutes at room temperature before 5 μL of stop solution was added (final concentration of 10 mM citric acid (Sigma, 251275-500G)). Fluorescence was read on the Envision (Excitation at 485 nm and Emission at 535 nm; Perkin Elmer) or on the PheraSTAR (Excitation at 485 nm and Emission at 535 nm; BMG Labtech).
# For assay formats Example A-1(a), A-1(b), and A-2, data were reported as percent inhibition compared with control wells based on the following equation: % inh=1−((FLU−AveLow)/(AveHigh−AveLow)) where FLU=measured Fluorescence, AveLow=average Fluorescence of no enzyme control (n=16), and AveHigh=average Fluorescence of DMSO control (n=16). IC50 values were determined by curve fitting of the standard 4 parameter logistic fitting algorithm included in the Activity Base software package: IDBS XE Designer Model 205. Data is fitted using the Levenburg Marquardt algorithm.
row,Compound,USP28 A-1(b) IC50 range
1,"Cc1ccc2c(N)c(C(=O)N[C@@H]3COc4cc(N5CCN[C@@H](C)[C@H]5C)ccc4C3)sc2n1 (single isomer, unassigned) [Example 1-8]",++++ (0.001-0.05 μM)
2,"Cc1ccc2c(N)c(C(=O)N[C@H]3COc4cc(N5CC6CCC(C5)N6)cc(F)c4C3)sc2n1 (single isomer, unassigned) [Example 1-29]",+++ (0.05-0.2 μM)

# Same assay, conditions: Ubiquitin-Rhodamine 110 assay, Example A-1(b)
row,Compound,USP28 A-1(b) IC50 range
1,"Cc1ccc2c(N)c(C(=O)N[C@H]3COc4cc(N5CCNCC5)ccc4[C@H]3C)sc2n1 (single isomer, unassigned) [Example 11-15]",+ (>2 μM)
2,"Cc1ccc2c(N)c(C(=O)N[C@H]3COc4cc(N5CCNCC5)ccc4[C@@H]3C)sc2n1 (single isomer, unassigned) [Example 11-16]",+ (>2 μM)
3,"Cc1cnc2c(N)c(C(=O)N[C@H]3CCc4cc(N5CCNCC5)ccc4C3)sc2n1 (single isomer, unassigned) [Example 11-19]",++ (0.2-2 μM)
4,"Cc1cnc2c(N)c(C(=O)N[C@@H]3CCc4cc(N5CCNCC5)ccc4C3)sc2n1 (single isomer, unassigned) [Example 11-20]",+ (>2 μM)
5,"Cc1ccc2c(N)c(C(=O)N[C@H]3CCc4cc(N5CCNCC5)ccc4C3)sc2n1 (single isomer, unassigned) [Example 11-21]",++ (0.2-2 μM)
6,"Cc1ccc2c(N)c(C(=O)N[C@@H]3CCc4cc(N5CCNCC5)ccc4C3)sc2n1 (single isomer, unassigned) [Example 11-22]",++ (0.2-2 μM)
7,"CN[C@H]1CCN(c2ccc3c(c2)CC[C@H](NC(=O)c2sc4nc(C)cnc4c2N)C3)C1 (single isomer, unassigned) [Example 11-25]",++ (0.2-2 μM)
8,"CN[C@H]1CCN(c2ccc3c(c2)CC[C@@H](NC(=O)c2sc4nc(C)cnc4c2N)C3)C1 (single isomer, unassigned) [Example 11-26]",+ (>2 μM)
9,"CN[C@@H]1CCN(c2ccc3c(c2)CC[C@H](NC(=O)c2sc4nc(C)cnc4c2N)C3)C1 (single isomer, unassigned) [Example 11-27]",++ (0.2-2 μM)
10,"CN[C@@H]1CCN(c2ccc3c(c2)CC[C@@H](NC(=O)c2sc4nc(C)cnc4c2N)C3)C1 (single isomer, unassigned) [Example 11-28]",+ (>2 μM)
11,"Cc1cnc2c(N)c(C(=O)N[C@H]3CCc4cc(N5C[C@@H]6C[C@H]5CN6)ccc4C3)sc2n1 (single isomer, unassigned) [Example 11-29]",++ (0.2-2 μM)
12,"Cc1ccc2c(N)c(C(=O)N[C@H]3CCc4cc(N5CC6CNCC(C5)O6)ccc4C3)sc2n1 (single isomer, unassigned) [Example 449]",++ (0.2-2 μM)
13,"Cc1ccc2c(N)c(C(=O)N[C@H]3COc4cc(N5CCNC6(COC6)C5)ccc4C3)sc2n1 [Example 4-1, (R)—N-(7-(2-oxa-5,8-diazaspiro[3.5]nonan-8-yl)chroman-3-yl)-3-amino-6-methylthieno[2,3-b]pyridine-2-carboxamide]",++ (0.2-2 μM)

# Same assay, conditions: Ubiquitin-Rhodamine 110 assay, format Example A-1(b)
row,Compound,USP28 A-1(b) IC50 range
1,"Cc1cnc2c(N)c(C(=O)N[C@@H]3CCc4cc(N5C[C@@H]6C[C@H]5CN6)ccc4C3)sc2n1 (single isomer, unassigned) [Example 11-30]",++ (0.2-2 μM)
2,"Cc1cnc2c(N)c(C(=O)N[C@H]3CCc4cc(N5C[C@H]6C[C@@H]5CN6)ccc4C3)sc2n1 (single isomer, unassigned) [Example 11-31]",++ (0.2-2 μM)
3,"Cc1cnc2c(N)c(C(=O)N[C@@H]3CCc4cc(N5C[C@H]6C[C@@H]5CN6)ccc4C3)sc2n1 (single isomer, unassigned) [Example 11-32]",++ (0.2-2 μM)
4,"Cc1nc2sc(C(=O)N[C@@H]3CCc4cc(N5CCNCC5)ccc4C3)c(N)c2s1 (single isomer, unassigned) [Example 11-34]",++ (0.2-2 μM)
5,"Cc1cnc2c(N)c(C(=O)N[C@@H]3CCc4cc(N5CCNCC5)cc(F)c4C3)sc2n1 (single isomer, unassigned) [Example 11-37]",+ (>2 μM)
6,"Cc1cnc2c(N)c(C(=O)N[C@H]3CCc4cc(N5CCNCC5)cc(F)c4C3)sc2n1 (single isomer, unassigned) [Example 11-38]",+++ (0.05-0.2 μM)
7,"Cc1ccc2c(N)c(C(=O)N[C@H]3CCc4cc(N5CC6CNCC(C5)O6)cc(F)c4C3)sc2n1 (single isomer, unassigned) [Example 11-39]",++ (0.2-2 μM)
8,"Cc1ccc2c(N)c(C(=O)N[C@@H]3CCc4cc(N5CC6CNCC(C5)O6)cc(F)c4C3)sc2n1 (single isomer, unassigned) [Example 11-40]",++++ (0.001-0.05 μM)
9,"Cc1ccc2c(N)c(C(=O)N[C@@H]3CCc4c(C#N)c(N5CCNCC5)cc(F)c4C3)sc2n1 [Example 14-9, (R)-3-amino-N-(5-cyano-8-fluoro-6-(piperazin-1-yl)-1,2,3,4-tetrahydronaphthalen-2-yl)-6-methylthieno[2,3-b]pyridine-2-carboxamide]",+ (>2 μM)
10,"Cc1ccc2c(N)c(C(=O)N[C@H]3CCc4c(C#N)c(N5CCNCC5)cc(F)c4C3)sc2n1 [Example 14-10, (S)-3-amino-N-(5-cyano-8-fluoro-6-(piperazin-1-yl)-1,2,3,4-tetrahydronaphthalen-2-yl)-6-methylthieno[2,3-b]pyridine-2-carboxamide]",+++ (0.05-0.2 μM)
11,"Cc1cnc2c(N)c(C(=O)N[C@@H]3CCc4c(C#N)c(N5CCNCC5)cc(F)c4C3)sc2n1 [Example 14-11, (R)-7-amino-N-(5-cyano-8-fluoro-6-(piperazin-1-yl)-1,2,3,4-tetrahydronaphthalen-2-yl)-3-methylthieno[2,3-b]pyrazine-6-carboxamide]",++ (0.2-2 μM)
